Like-named read-outs stand apart in the source and are kept apart here.
Columns and labels:
[1] = molecular target: T1, NK-1 (Homo sapiens, UniProt P25103); test: NK1 radioligand binding assay; conditions: U373 membrane preparation, [125I]Substance P
T1 construct: endogenous in cells; host or cells: U373 cells (crude membranes)
Procedure: (§1) NK-1 Binding assay. Crude membrane suspensions were prepared for the NK1 and SERT radioligand binding assays from U373 cells or recombinant HEK-293 cells expressing hSERT, respectively. […] The medium is removed from the flasks and the cells rinsed with HBSS without Ca and without Mg. The cells are then incubated for 5-10 minutes in 10 mM Tris-Cl, pH 7.5, 5 mM EDTA before the cells are lifted with a combination of pipetting and scraping, as needed. To prepare membranes, the cell suspension is collected into centrifuge bottles and homogenized for 30 seconds with a Polytron homogenizer. The suspension is centrifuged for 30 min 32,000×g, 4° C., then the supernatant is decanted and the pellet resuspended and homogenized in 50 mM Tris-Cl, pH 7.5, 1 mM EDTA for 10 seconds. The suspension is then centrifuged again for 30 min 32,000×g, 4° C. The supernatant is decanted and the pellet resuspended in 50 mM Tris-Cl, pH 7.5, 1 mM EDTA and briefly homogenized. A Bradford assay (Bio-rad) is performed and the membrane preparation diluted to 2 mg/ml with 50 mM Tris-Cl, pH 7.5, 1 mM EDTA. Aliquots are prepared, and then frozen and stored at −80° C.
(§2) NK1 radioligand binding assay. Compounds are dissolved in 100% DMSO at a concentration 100× the desired highest assay concentration, serially diluted 1:3 in 100% DMSO, and 0.6 ul/well of each solution is dispensed to a Nunc polypropylene, round bottom, 384 well plate. […] The contents of the assay plate are then transferred to a Millipore MultiscreenHTS GF/B filter plate which has been pretreated with 0.5% PEI for at least one hour. The plate is vacuum filtered and washed with 7 washes of 100 ul/well of 20 mM Tris-Cl, pH 7.5, 0.5% (w/v) BSA chilled to 4° C. The filtration and washing is completed in less than 90 s. The plates are air-dried overnight, 12 ul/well of MicroScint scintillation fluid added, and the plates counted in a Trilux.
(§3) Data analysis. […] Each plate is run in triplicate, and the concentration response curve thus generated is fit using the four-parameter dose response equation, Y=Bottom+(Top-Bottom)/(1+10^((Log IC50−X)*HillSlope)) in order to determine the IC50 value for each compound. The radioligand concentration chosen for each assay corresponds to the Kd concentration determined through saturation binding analysis for each assay.

[2] = molecular target: T2, hSERT (Homo sapiens, UniProt P31645); test: SERT radioligand binding assay
T2 construct: expressed in transfected cells; host or cells: HEK-293 cells (crude membranes)
T2 sequence (P31645 whole entry): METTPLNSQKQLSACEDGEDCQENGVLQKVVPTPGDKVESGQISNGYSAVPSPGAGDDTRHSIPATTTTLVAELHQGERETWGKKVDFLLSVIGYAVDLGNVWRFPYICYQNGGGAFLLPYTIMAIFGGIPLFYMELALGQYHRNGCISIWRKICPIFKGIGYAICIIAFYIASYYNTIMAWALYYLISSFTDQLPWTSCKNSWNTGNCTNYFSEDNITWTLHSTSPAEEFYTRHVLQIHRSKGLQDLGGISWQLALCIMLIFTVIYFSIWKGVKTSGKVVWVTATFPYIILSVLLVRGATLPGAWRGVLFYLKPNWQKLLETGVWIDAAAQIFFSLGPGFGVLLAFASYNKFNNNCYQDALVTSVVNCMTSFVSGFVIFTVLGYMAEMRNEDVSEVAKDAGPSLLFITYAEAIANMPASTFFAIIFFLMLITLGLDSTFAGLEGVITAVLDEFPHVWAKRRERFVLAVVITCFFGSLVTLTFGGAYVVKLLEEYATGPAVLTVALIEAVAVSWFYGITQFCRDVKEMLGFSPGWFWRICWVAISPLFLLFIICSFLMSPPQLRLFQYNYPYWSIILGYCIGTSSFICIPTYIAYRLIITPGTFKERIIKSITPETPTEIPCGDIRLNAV
Procedure: as §1
as §2, with “SERT” for “NK1”, “0.4” for “0.6”, “50” for “20”, “120 mM NaCl, 5 mM KCl” for “0.5% (w/v) BSA”
as §3

[3] = HEK-hSERT membrane preparation, [125I]RTI-55, read-out: SERT IC50

T1 sequence (P25103 whole entry): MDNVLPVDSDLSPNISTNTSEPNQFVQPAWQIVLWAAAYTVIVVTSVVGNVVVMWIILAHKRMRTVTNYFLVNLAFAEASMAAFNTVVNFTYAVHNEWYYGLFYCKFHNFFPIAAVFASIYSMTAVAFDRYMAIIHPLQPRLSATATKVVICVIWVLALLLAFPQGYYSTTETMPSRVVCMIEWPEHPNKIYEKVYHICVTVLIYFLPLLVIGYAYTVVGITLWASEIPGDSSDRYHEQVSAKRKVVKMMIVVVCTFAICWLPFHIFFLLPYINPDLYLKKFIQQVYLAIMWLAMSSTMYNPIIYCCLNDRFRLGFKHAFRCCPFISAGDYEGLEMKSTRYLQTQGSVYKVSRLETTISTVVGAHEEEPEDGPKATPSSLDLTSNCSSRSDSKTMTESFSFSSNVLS

| SMILES | IC50 [1] [nM] | IC50 [2] [nM] | IC50 [2, 3] [nM] |
| --- | --- | --- | --- |
| Cc1cc(-c2cc(C(F)(F)F)cc(COCC3(c4ccc(F)cc4)CCN(C)CC3)n2)ccc1C#N [Example 61] | 0.01 to 100 | 0.01 to 100 | – |
| CN1CCC(COCc2cc(C(F)(F)F)cc(-c3ccc(F)cc3F)n2)(c2ccc(F)cc2)CC1 [Example 62] | 0.01 to 100 | 0.01 to 100 | – |
| COC(=O)c1ccc(-c2cc(C(F)(F)F)cc(COCC3(c4ccc(F)cc4)CCN(C)CC3)n2)c(F)c1 [Example 63] | 0.01 to 100 | 0.01 to 100 | – |
| CN1CCC(COCc2cc(C(F)(F)F)cc(-c3ccc(C#N)cc3)n2)(c2ccc(F)cc2F)CC1 [Example 64] | 0.01 to 100 | 100 to 300 | – |
| CN1CCC(COCc2cc(C(F)(F)F)cc(-c3cccn3C(=O)OC(C)(C)C)n2)(c2ccc(F)cc2)CC1 [Example 65] | 0.01 to 100 | 100 to 300 | – |
| CN1CCC(COCc2cc(C(F)(F)F)cc(-c3ccc[nH]3)n2)(c2ccc(F)cc2)CC1 [Example 66] | 0.01 to 100 | 0.01 to 100 | – |
| CN1CCC(COCc2cc(-c3ccc(C#N)cc3)nc(-c3ccc(C#N)cc3)c2)(c2ccccc2)CC1 [Example 67] | > 300 | 100 to 300 | – |
| CCN(c1cc(C(F)(F)F)cc(COCC2(c3ccc(F)cc3)CCN(C)CC2)n1)C(C)C [Example 73] | 0.01 to 100 | 0.01 to 100 | – |
| COc1ccc(-c2cc(C(F)(F)F)cc(COCC3(c4ccc(F)cc4)CCN(C)CC3)n2)cc1 [Example 74] | 0.01 to 100 | 0.01 to 100 | – |
| COc1ccc(-c2cc(C(F)(F)F)cc(COCC3(c4ccc(F)cc4)CCN(C)CC3)n2)cc1F [Example 75] | 0.01 to 100 | 0.01 to 100 | – |
| COc1cc(COCC2(c3ccc(F)cc3)CCN(C)CC2)cc(-c2ccc(C#N)cc2)n1 [Example 76] | 0.01 to 100 | 0.01 to 100 | – |
| COc1cc(C(C)OCC2(c3ccc(F)cc3)CCN(C)CC2)cc(-c2ccc(C#N)cc2)n1 (centres unmarked) [Example 79] | 0.01 to 100 | 0.01 to 100 | – |
| COc1cc(COCC2(c3ccc(F)cc3)CCN(C)CC2)cc(C(F)(F)F)n1 [Example 80] | 0.01 to 100 | 0.01 to 100 | – |
| CN1CCC(COCc2cc(C(F)(F)F)cc(-c3ccc(C#N)cc3)n2)(c2ccc(F)c(F)c2)CC1 [Example 81] | 0.01 to 100 | 0.01 to 100 | – |
| CN1CCC(COCc2cc(C(F)(F)F)cc(-c3ccc(C#N)cc3)n2)(c2cccc(Cl)c2)CC1 [Example 82] | 0.01 to 100 | 0.01 to 100 | – |
| CN1CCC(COCc2cc(C(F)(F)F)cc(-c3ccc(C#N)cc3)n2)(c2cccc(C(F)(F)F)c2)CC1 [Example 83] | 0.01 to 100 | 100 to 300 | – |

| SMILES | IC50 [1] [nM] | IC50 [2] [nM] | IC50 [2, 3] [nM] |
| --- | --- | --- | --- |
| CN1CCC(COCc2cc(C(F)(F)F)cc(-c3ccc(C#N)cc3)n2)(c2ccc(C#N)cc2)CC1 [Example 84] | 0.01 to 100 | 0.01 to 100 | – |
| CN1CCC(COCc2cc(C(F)(F)F)cc(-c3ccc(C#N)cc3)n2)(c2cccc(F)c2)CC1 [Example 85] | 0.01 to 100 | 0.01 to 100 | – |
| CC(OCC1(c2ccc(F)cc2)CCN(C)CC1)c1cc(C(F)(F)F)cc(N2CCCC2)n1 (centres unmarked) [Example 86] | 0.01 to 100 | 0.01 to 100 | – |
| CC(OCC1(c2ccc(F)cc2)CCN(C)CC1)c1cc(C(F)(F)F)cc(N2CC[C@@H](F)C2)n1 (some centres unmarked) [Example 87] | 0.01 to 100 | – | 0.01 to 100 |
| CN1CCC(COCc2cc(C(F)(F)F)cc(N3CCC(N4CCCC4)CC3)n2)(c2ccccc2)CC1 [Example 88] | > 300 | – | 0.01 to 100 |
| CN1CCC(COCc2cc(C(F)(F)F)cc(N3CCC(F)(F)C3)n2)(c2ccc(F)cc2)CC1 [Example 89] | 0.01 to 100 | 0.01 to 100 | – |
| CC1CCCN1c1cc(C(F)(F)F)cc(COCC2(c3ccc(F)cc3)CCN(C)CC2)n1 (centres unmarked) [Example 90] | 0.01 to 100 | 0.01 to 100 | – |
| CN1CCC(COCc2cc(C(F)(F)F)cc(N3CC[C@H](F)C3)n2)(c2ccc(F)cc2)CC1 [Example 91] | 0.01 to 100 | 0.01 to 100 | – |
| CN1CCC(COCc2cc(C(F)(F)F)cc(N3CC[C@@H](F)C3)n2)(c2ccc(F)cc2)CC1 [Example 92] | 0.01 to 100 | 0.01 to 100 | – |
| C[C@H]1CCCN1c1cc(C(F)(F)F)cc(COCC2(c3ccc(F)cc3)CCN(C)CC2)n1 [Example 93] | 0.01 to 100 | 0.01 to 100 | – |
| C[C@@H]1CCCN1c1cc(C(F)(F)F)cc(COCC2(c3ccc(F)cc3)CCN(C)CC2)n1 [Example 94] | 0.01 to 100 | 0.01 to 100 | – |
| CC(OCC1(c2ccc(F)cc2)CCN(C)CC1)c1cc(C(F)(F)F)cc(N2CCC[C@@H]2C)n1 (some centres unmarked) [Example 95] | 0.01 to 100 | 0.01 to 100 | – |
| CC(OCC1(c2ccc(F)cc2)CCN(C)CC1)c1cc(C(F)(F)F)cc(-c2ccc(C#N)cc2)n1 (centres unmarked) [Example 96] | 0.01 to 100 | 0.01 to 100 | – |
| Cc1cc(-c2cc(C(F)(F)F)cc(C(C)OCC3(c4ccc(F)cc4)CCN(C)CC3)n2)ccc1C#N (centres unmarked) [Example 97] | 0.01 to 100 | 100 to 300 | – |
| CN1CCC(COCc2cc(C(F)(F)F)cc(-c3ccc(C#N)cc3)n2)(c2cccnc2)CC1 [Example 98] | 0.01 to 100 | 0.01 to 100 | – |
